From patent publication US20250152569A1, “TREATMENT OF CELL PROLIFERATION-ASSOCIATED CONDITIONS USING A COMBINATION OF A CLB-B INHIBITOR AND AN ADDITIONAL THERAPEUTIC AGENT” (HOTSPOT THERAPEUTICS, INC., priority 2022, published 2025)

Tests used:
Design in all cases: species or system female BALB/c mice
[1] = test system: subcutaneous murine colorectal cancer model CT26.WT; test: In vivo efficacy study, subcutaneous murine colorectal cancer model CT26.WT (Example 4); conditions: Day 16
Experimental: (§1) The objective of this study was to evaluate preclinically the in vivo therapeutic efficacy of HotSpot Therapeutics's Test Articles in the treatment of the subcutaneous murine Colorectal model CT26.WT in female BALB/c mice. Compound 29 test particles were delivered via PO. Compound 29 was assessed at various dose levels in combination with Oxaliplatin or Cabozantinib. Tumor volumes and body weight were measured three times per week after the initiation of treatment.
The CT26.WT tumor cells were maintained in vitro with RPMI-1640 medium supplemented with 10% fetal bovine serum at 37° C. in an atmosphere of 5% CO2 in air. The cells in exponential growth phase were harvested and quantitated by cell counter before tumor inoculation.
Each mouse was inoculated subcutaneously it the right lower flank region with 5×10^5 tumor cells in 0.1 ml of PBS mixed with Matrigel (1:1) for tumor development.
The randomization started when the mean tumor size reached approximately 86.42 mm^3. 60 mice were enrolled in the study. All animals were randomly allocated to 6 study groups, 10 mice in each group. Randomization was performed based on “Matched distribution” method (StudyDirector™ software, version 3.1.399.19)
The date of randomization was denoted as day 0.
The treatment was initiated on the same day of randomization (day 0) per study design.
(§2) After tumor cells inoculation, the animals were checked daily for morbidity and mortality. During routine monitoring, the animals were checked for any effects of tumor growth and treatments on behavior such as mobility, food and water consumption, body weight gain/loss (Body weights were measured twice per week after randomization), eye/hair matting and any other abnormalities. Mortality and observed clinical signs were recorded for individual animals in detail.
Tumor volumes were measured twice per week after randomization in two dimensions using a caliper, and the volume was expressed in mm^3 using the formula: “V=(L×W×W)/2, where V was tumor volume, L was tumor length (the longest tumor dimension) and W was tumor width (the longest tumor dimension perpendicular to L). Dosing as well as tumor and body weight measurements were conducted in a Laminar Flow Cabinet.
The body weights and tumor volumes were measured by using StudyDirector™ software (version 3.1.399.19).
For Group 01 and Group 03 were terminated when the mean tumor volume of the vehicle control group reaches 2000 mm^3 on day 16.
For Group 02, Group 04, Group 05 and Group 06 were performed for 3 weeks. The study was terminated on day 21 (Sep. 21, 2022).
To compare tumor volumes of different groups at a pre-specified day, we first used Bartlett's test to check the assumption of homogeneity of variance across all groups. When the p-value of Bartlett's test was >=0.05, we ran one-way ANOVA to test overall equality of means across all groups. If the p-value of the one-way ANOVA was <0.05, we further performed post hoc testing by running Tukey's HSD (honest significant difference) tests for all pairwise comparisons, and Dunnett's tests for comparing each treatment group with the vehicle group. When the p-value of Bartlett's test was <0.05, we ran Kruskal-Wallis test to test overall equality of medians among all groups. If the p-value the Kruskal-Wallis test was <0.05, we further performed post hoc testing by running Conover's non-parametric test for all pairwise comparisons or for comparing each treatment group with the vehicle group, both with single-step p-value adjustment.
In addition, we performed pairwise comparisons without multiple comparison correction and report nominal/uncorrected p-values directly from Welch's t-test or Mann-Whitney U test at each time point. Specifically, we first used Shapiro Wilk test to check the assumption of normal distribution for each group. When p-values of Shapiro Wilk tests of both groups in a pair are >0.05, we ran Welch's t-test, otherwise we ran Mann-Whitney U test, to obtain nominal p-values. […]

[2] = test system: subcutaneous murine colorectal cancer model CT26.WT; test: In vivo efficacy study, CT26.WT model, combination with ALT-803 (Example 6); conditions: Compound 29 30 mg/kg p.o. BID in combination with ALT-803 0.2 mg/kg i.p. QW; FIG. 5A, 5B
Experimental: as §1, with “of” for “of HotSpot Therapeutics's”, “ALT-803.” for “Oxaliplatin or Cabozantinib.”
The CT26.WT tumor cells will be maintained in vitro with RPMI-1640 medium supplemented with 10% fetal bovine serum at 37° C. in an atmosphere of 5% CO2 in air. The cells in exponential growth phase will be harvested and quantitated by cell counter before tumor inoculation. […]
as §2, with “will be” for “were”, “detail. […]” for “detail.”
(§3) The body weights and tumor volumes will be measured by using StudyDirector™ software (version 3.1.399.19). […]

[3] = test system: subcutaneous murine colorectal cancer model CT26.WT; test: In vivo efficacy study, CT26.WT model, combination with Doxorubicin, Gemcitabine or Paclitaxel (Example 5)
Experimental: as §1, with “of” for “of HotSpot Therapeutics's”, “Doxorubicin, Gemcitabine” for “Oxaliplatin”, “Paclitaxel.” for “Cabozantinib.”
The CT26.WT tumor cells will be maintained in vitro with RPMI-1640 medium supplemented with 10% fetal bovine serum at 37° C. in an atmosphere of 5% CO2 in air. The cells in exponential growth phase will be harvested and quantitated by cell counter before tumor inoculation.
Each ach mouse will be inoculated subcutaneously in the right lower flank region with CT26 tumor cells (5×10^5) in 0.1 ml of PBS for tumor development.
The randomization will start when the mean tumor size reaches approximately 80-100 mm^3. […] Randomization will be performed based on “Matched distribution” method/“Stratified” method (Study Director™ software, version 3.1.399.19)/randomized block design. The date of randomization will be denoted as day 0. […]
as §2, with “will be” for “were”
Tumor volumes will be measured twice per week after randomization in two dimensions using a caliper, and the volume will be expressed in mm^3 using the formula: “V=(L×W×W)/2, where V is tumor volume, L is tumor length (the longest tumor dimension) and W is tumor width (the longest tumor dimension perpendicular to L). […]
as §3

[4] = single agent, Compound 29 60 mg/kg p.o. BID, Oxaliplatin 5 mg/kg i.p. Q4D, Cabozantinib 10 mg/kg p.o. QD
[5] = Compound 29 60 mg/kg p.o. BID in combination with Cabozantinib 10 mg/kg p.o. QD (Group 6)
[6] = Compound 29 60 mg/kg p.o. BID in combination with Oxaliplatin 5 mg/kg i.p. Q4D (Group 5)

Structure (SMILES)	T/C (%) [1, 4] [%]	TGI (%) [1, 4] [%]	Tumor Volume (mean ± SEM) [1, 4] [mm^3]	T/C (%) [1, 5] [%]	TGI (%) [1, 5] [%]	Tumor Volume (mean ± SEM) [1, 5] [mm^3]	T/C (%) [1, 6] [%]	TGI (%) [1, 6] [%]	Tumor Volume (mean ± SEM) [1, 6] [mm^3]	effect on tumor inhibition as compared to each of the agents as monotherapies [2]	effect on tumor inhibition as compared to each of the agents as monotherapies ([3]; Compound 29 60 mg/kg p.o. BID in combination with Doxorubicin 4 mg/kg i.v. Q4D, FIG. 2A, 2B)	effect on tumor inhibition as compared to each of the agents as monotherapies ([3]; Compound 29 60 mg/kg p.o. BID in combination with Gemcitabine 5 mg/kg i.p. Q3D, FIG. 3A, 3B)	effect on tumor inhibition as compared to each of the agents as monotherapies ([3]; Compound 29 60 mg/kg p.o. BID in combination with Paclitaxel 20 mg/kg i.p. QW, FIG. 4A, 4B)
O=C1[O][Pt]2([NH][C@@H]3CCCC[C@H]3[NH]2)[O]C1=O [Oxaliplatin, reference compound]	103.27	−3.27	2609.42 ± 203.84	–	–	–	–	–	–	–	–	–	–
C[C@H]1CCCN(Cc2cc(C(F)(F)F)c3cn(-c4cccc(C5(Cc6nncn6C)COC5)c4)c(=O)n3c2)C1 [Compound 29]	56.42	43.58	1425.65 ± 232.85	25.45	74.55	643.08 ± 59.79	35.94	64.06	908.21 ± 76.22	improved effect on tumor inhibition	improved effect on tumor inhibition	improved effect on tumor inhibition	improved effect on tumor inhibition
COc1cc2nccc(Oc3ccc(NC(=O)C4(C(=O)Nc5ccc(F)cc5)CC4)cc3)c2cc1OC [Cabozantinib, reference compound]	30.55	69.45	772.01 ± 100.44	–	–	–	–	–	–	–	–	–	–
